Tested on: NL-RLuc virus
Assay: Inhibition of HIV replication (NL-RLuc luciferase reporter virus in MT-2 cells)
Assay type: cell-based
Conditions: Human immunodeficiency virus 1, MT2, 120 h
Source text: Inhibition of HIV replication: A recombinant NL-RLuc proviral clone was constructed in which a section of the nef gene from NL4-3 was replaced with the Renilla Luciferase gene. This virus is fully infectious and can undergo multiple cycles of replication in cell culture. In addition, the luciferous reporter provides a simple and easy method for quantitating the extent of virus growth and consequently, the antiviral activity of test compounds. The plasmid pNLRLuc contains the proviral NL-Rluc DNA cloned into pUC18 at the PvuII site. The NL-RLuc virus was prepared by transfection of 293T cells with the plasmid pNLRLuc. Transfections were performed using the LipofectAMINE PLUS kit from Invitrogen (Carlsbad, Calif.) according to the manufacturer and the virus generated was titered in MT-2 cells. For susceptibility analyses, the titrated virus was used to infect MT-2 cells in the presence of compound, and after 5 days of incubation, cells were processed and quantitated for virus growth by the amount of expressed luciferase. Assay media was RPMI 1640 supplemented with 10% heat inactivated fetal bovine serum (FBS), 100 units/ml penicillin G/100 units/ml streptomycin, 10 mM HEPES buffer pH 7.55 and 2 mM L-glutamine. The results from at least 2 experiments were used to calculate the EC50 values. Luciferase was quantitated using the Dual Luciferase kit from Promega (Madison, Wis.). Susceptibility of viruses to compounds was determined by incubation in the presence of serial dilutions of the compound. The 50% effective concentration (EC50) was calculated by using the exponential form of the median effect equation where (Fa)=1/[1+(ED50/drug conc.)^m] (Johnson V A, Byington R T. Infectivity Assay. In Techniques in HIV Research. ed. Aldovini A, Walker B D. 71-76. New York: Stockton Press. 1990).

**Q.** For `Cc1nc2cc3nn2c(c1[C@H](OC(C)(C)C)C(=O)O)N1CCC(C)(CC1)OC/C=C/CCc1ccn(n1)-c1cccc-3c1` [Example 1, (2S)-tert-Butoxy[(21E)-4,25-dimethyl-24-oxa-1,5,7,8,15,30-hexaazahexacyclo[23.2.2.1^6,9.1^10,14.1^15,18.0^2,7]dotriaconta-2,4,6(32),8,10(31),11,13,16,18(30),21-decaen-3-yl]acetic acid], which EC50 is on record?
**A.** Its EC50 is 87 nM.

**Q.** For `Cc1nc2cc3nn2c(c1[C@H](OC(C)(C)C)C(=O)O)N1CCC(C)(CC1)OCCCCCc1ccn(n1)-c1cccc-3c1` [Example 2, (2S)-tert-Butoxy[4,25-dimethyl-24-oxa-1,5,7,8,15,30-hexaazahexacyclo[23.2.2.1^6,9.1^10,14.1^15,18.0^2,7]dotriaconta-2,4,6(32),8,10(31),11,13,16,18(30)-nonaen-3-yl]acetic acid], which EC50 is on record?
**A.** Its EC50 is 49 nM.

**Q.** Which EC50 does the source give for `Cc1nc2cc3nn2c(c1[C@H](OC(C)(C)C)C(=O)O)N1CCC(C)(CC1)OCCCCCn1ccc(n1)-c1cccc-3c1` [Example 3, (2S)-tert-Butoxy[4,25-dimethyl-24-oxa-1,5,7,8,18,30-hexaazahexacyclo[23.2.2.1^6,9.1^10,14.1^15,18.0^2,7]dotriaconta-2,4,6(32),8,10(31),11,13,15(30),16-nonaen-3-yl]acetic acid] here?
**A.** Its EC50 is 26 nM.

**Q.** `Cc1nc2cc3nn2c(c1[C@H](OC(C)(C)C)C(=O)O)N1CCC(C)(CC1)OCCCCn1ccc(n1)-c1cccc-3c1` [Example 4, (2S)-tert-butoxy[4,24-dimethyl-23-oxa-1,5,7,8,18,29-hexaazahexacyclo[22.2.2.1^6,9.1^10,14.1^15,18.0^2,7]hentriaconta-2,4,6(31),8,10(30),11,13,15(29),16-nonaen-3-yl]acetic acid] was tested. Which EC50 did it give?
**A.** The EC50 was 14 nM.

**Q.** How did the EC50 turn out when `Cc1cc2n(n1)-c1cccc(c1)-c1cc3nc(C)c([C@H](OC(C)(C)C)C(=O)O)c(n3n1)N1CCC(C)(CCCCCC2)CC1` [Example 5, (2S)-tert-Butoxy[4,17,26-trimethyl-1,5,7,8,15,16-hexaazahexacyclo[24.2.2.1^6,9.1^10,14.0^2,7.0^15,19]dotriaconta-2,4,6(32),8,10(31),11,13,16,18-nonaen-3-yl]acetic acid] was run?
**A.** The EC50 was 4 nM.

**Q.** `Cc1cc2n(n1)-c1cccc(c1)-c1cc3nc(C)c([C@H](OC(C)(C)C)C(=O)O)c(n3n1)N1CCC(C)(CCCCC2)CC1` [Example 6, (2S)-tert-butoxy[4,17,25-trimethyl-1,5,7,8,15,16-hexaazahexacyclo[23.2.2.1^6,9.1^10,14.0^2,7.0^15,19]hentriaconta-2,4,6(31),8,10(30),11,13,16,18-nonaen-3-yl]acetic acid] was tested. Which EC50 did it give?
**A.** Its EC50 is 7 nM.

**Q.** Which EC50 does the source give for `Cc1nc2c(s1)CCCCCCC1(C)CCN(CC1)c1c([C@H](OC(C)(C)C)C(=O)O)c(C)nc3cc(nn13)-c1cccc-2c1` [Example 7, (2S)-tert-Butoxy[4,17,26-trimethyl-18-thia-1,5,7,8,16-pentaazahexacyclo[24.2.2.1^6,9.1^10,14.0^2,7.0^15,19]dotriaconta-2,4,6(32),8,10(31),11,13,15(19),16-nonaen-3-yl]acetic acid] here?
**A.** The EC50 was 7 nM.

**Q.** How did the EC50 turn out when `Cc1nc2c(s1)CCCCCC1(C)CCN(CC1)c1c([C@H](OC(C)(C)C)C(=O)O)c(C)nc3cc(nn13)-c1cccc-2c1` [Example 8, (2S)-tert-butoxy[4,17,25-trimethyl-18-thia-1,5,7,8,16-pentaazahexacyclo[23.2.2.1^6,9.1^10,14.0^2,7.0^15,19]hentriaconta-2,4,6(31),8,10(30),11,13,15(19),16-nonaen-3-yl]acetic acid] was run?
**A.** Its EC50 is 7 nM.

**Q.** `Cc1nc2cc3nn2c(c1[C@H](OC(C)(C)C)C(=O)O)N1CCC(C)(CC/C=C/CCc2nc(C)c(C)n2-c2cccc-3c2)CC1` [Example 9, (2S)-tert-Butoxy[4,16,17,26-tetramethyl-1,5,7,8,15,18-hexaazahexacyclo[24.2.2.1^6,9.1^10,14.0^2,7.0^15,19]dotriaconta-2,4,6(32),8,10(31),11,13,16,18,22-decaen-3-yl]acetic acid] was tested. Which EC50 did it give?
**A.** The EC50 was 9 nM.

**Q.** How did the EC50 turn out when `Cc1nc2cc3nn2c(c1[C@H](OC(C)(C)C)C(=O)O)N1CCC(C)(CCCCCCc2nc(C)c(C)n2-c2cccc-3c2)CC1` [Example 10, (2S)-tert-Butoxy[4,16,17,26-tetramethyl-1,5,7,8,15,18-hexaazahexacyclo[24.2.2.1^6,9.1^10,14.0^2,7.0^15,19]dotriaconta-2,4,6(32),8,10(31),11,13,16,18-nonaen-3-yl]acetic acid] was run?
**A.** The EC50 was 7 nM.
